According to US20260070945A1, “MACROCYCLIC IMMUNOMODULATORS” (Bristol-Myers Squibb Company, priority 2022, published 2026):
*1 amine or outer side, *2 acyl side, *3 side chain or, on linkers, in order; H or OH if unused. Where a SMILES comes first, the peptide text is derived from it. Bridges are numbered along the chain shown (N, C = ends). [ ]: non-standard residue; d: D form. The star is where a group is joined. X5 = O=C([C@H](Cc1ccc(-c2cc(F)c(F)c(F)c2)cc1)N[*:1])[*:2]; Phe(4-(4-F-Ph)) = N[C@@H](Cc1ccc(-c2ccc(F)cc2)cc1)C(=O)O; X13 = O=C([C@H](Cc1ccc(-c2cc(F)cc(F)c2)cc1)N[*:1])[*:2]; Phe(3-CF3) = N[C@@H](Cc1cccc(C(F)(F)F)c1)C(=O)O; Phe(4-COOH) = N[C@@H](Cc1ccc(C(=O)O)cc1)C(=O)O; Bip = N[C@@H](Cc1ccc(-c2ccccc2)cc1)C(=O)O; Phe(3-CN) = N#Cc1cccc(C[C@H](N)C(=O)O)c1; Phe(3-Cl) = N[C@@H](Cc1cccc(Cl)c1)C(=O)O; Phe(3-Me) = Cc1cccc(C[C@H](N)C(=O)O)c1; Cha = N[C@@H](CC1CCCCC1)C(=O)O; Cit = NC(=O)NCCC[C@H](N)C(=O)O; Carboxymethyl = O=C(O)C*; NMeA = CN[C@@H](C)C(=O)O; Pra = C#CC[C@H](N)C(=O)O; Aun = NCCCCCCCCCCC(=O)O; Dab = NCC[C@H](N)C(=O)O; AEEA = NCCOCCOCC(=O)O

The molecules below were run against T1, PD-1/PD-L1 interaction (PE-labeled human PD-L1-Ig binding to Jurkat cell line over-expressing human PD-1) (Homo sapiens, UniProt Q15116) (assay: Jurkat-PD-1 Cell Binding High-Content Screening Assay (CBA)). Details: Jurkat-hPD-1 cells, PE-labeled PD-L1-Ig 20 nM final; read-out: Jurkat HPD1 PDL1 IC50.
T1 construct: expressed in transfected cells; host or cells: Jurkat
T1 sequence (Q15116 25-288): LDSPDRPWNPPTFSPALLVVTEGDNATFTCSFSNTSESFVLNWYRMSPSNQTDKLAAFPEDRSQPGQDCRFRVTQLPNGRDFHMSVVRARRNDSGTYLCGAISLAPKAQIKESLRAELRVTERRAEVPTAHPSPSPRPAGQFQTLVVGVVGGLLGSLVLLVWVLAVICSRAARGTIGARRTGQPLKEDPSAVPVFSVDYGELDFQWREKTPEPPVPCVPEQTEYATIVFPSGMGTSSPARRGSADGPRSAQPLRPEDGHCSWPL
Procedure, shortened: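 In this imaging assay, cells in 10% FCS medium see compound for 2 h at 37 °C and then labeled ligand at 20 nM final for 1 h. Paraformaldehyde fixation, Hoechst 33342 staining and dPBS washes precede image capture.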

Row | IC50 | Compound
1 | 33.9 nM | Cc1cccc(C[C@@H]2NC(=O)[C@H](CC(=O)O)NC(=O)[C@H](Cc3ccc(OCC(=O)O)cc3)NC(=O)[C@H](CCCNC(=N)N)NC(=O)CSC[C@@H](C(=O)N[C@@H](CCCCN)C(=O)NCCCCCCCCCCC(=O)O)NC(=O)[C@H]([C@@H](C)O)NC(=O)[C@H](C(C)C)NC(=O)[C@H](CC3CCCCC3)NC(=O)[C@H](CCN)NC(=O)[C@@H](CC(C)C)NC(=O)[C@H](C)N(C)C(=O)[C@H](Cc3ccc(OCC(=O)O)cc3)NC(=O)[C@H](Cc3ccc(-c4ccccc4)cc3)NC(=O)[C@H](CCCNC(N)=O)NC2=O)c1 [Example 1227] ({CH2CO}-RY(Carboxymethyl)D[Phe(3-Me)][Cit][Bip]Y(Carboxymethyl)[NMeA][dL][Dab][Cha]VTCK[Aun]-OH; thioether N-14)
2 | 16.9 nM | CC(C)C[C@H]1NC(=O)[C@H](C)N(C)C(=O)[C@H](Cc2ccc(OCC(=O)O)cc2)NC(=O)[C@H](Cc2ccc(-c3ccccc3)cc2)NC(=O)[C@H](Cc2ccc(OCC(=O)O)cc2)NC(=O)[C@H](Cc2cccc(C(F)(F)F)c2)NC(=O)[C@H](CC(=O)O)NC(=O)[C@H](Cc2ccc(OCC(=O)O)cc2)NC(=O)[C@H]([C@@H](C)O)NC(=O)CSC[C@@H](C(=O)N[C@@H](CCN)C(=O)NCCOCCOCC(=O)NCCCCCCCCCCC(=O)O)NC(=O)[C@H](CCC(=O)O)NC(=O)[C@H](C(C)C)NC(=O)[C@H](CC2CCCCC2)NC(=O)[C@H](CCN)NC1=O [Example 1228] ({CH2CO}-TY(Carboxymethyl)D[Phe(3-CF3)]Y(Carboxymethyl)[Bip]Y(Carboxymethyl)[NMeA][dL][Dab][Cha]VEC[Dab][AEEA][Aun]-OH; thioether N-14)
3 | 15.2 nM | CC(C)C[C@H]1NC(=O)[C@H](C)N(C)C(=O)[C@H](Cc2ccc(OCC(=O)O)cc2)NC(=O)[C@H](Cc2ccc(-c3ccccc3)cc2)NC(=O)[C@H](Cc2ccc(OCC(=O)O)cc2)NC(=O)[C@H](Cc2cccc(Cl)c2)NC(=O)[C@H](CC(=O)O)NC(=O)[C@H](Cc2ccc(OCC(=O)O)cc2)NC(=O)[C@H]([C@@H](C)O)NC(=O)CSC[C@@H](C(=O)N[C@@H](CCN)C(=O)NCCOCCOCC(=O)NCCCCCCCCCCC(=O)O)NC(=O)[C@H](CCC(=O)O)NC(=O)[C@H](C(C)C)NC(=O)[C@H](CC2CCCCC2)NC(=O)[C@H](CCN)NC1=O [Example 1229] ({CH2CO}-TY(Carboxymethyl)D[Phe(3-Cl)]Y(Carboxymethyl)[Bip]Y(Carboxymethyl)[NMeA][dL][Dab][Cha]VEC[Dab][AEEA][Aun]-OH; thioether N-14)
4 | 128 nM | CC(C)C[C@H]1NC(=O)[C@H](C)N(C)C(=O)[C@H](Cc2ccc(OCC(=O)O)cc2)NC(=O)[C@H](Cc2ccc(-c3ccccc3)cc2)NC(=O)[C@H](Cc2ccc(OCC(=O)O)cc2)NC(=O)[C@H](Cc2cccc(C#N)c2)NC(=O)[C@H](CC(=O)O)NC(=O)[C@H](Cc2ccc(OCC(=O)O)cc2)NC(=O)[C@H]([C@@H](C)O)NC(=O)CSC[C@@H](C(=O)N[C@@H](CCN)C(=O)NCCOCCOCC(=O)NCCCCCCCCCCC(=O)O)NC(=O)[C@H](CCC(=O)O)NC(=O)[C@H](C(C)C)NC(=O)[C@H](CC2CCCCC2)NC(=O)[C@H](CCN)NC1=O [Example 1230] ({CH2CO}-TY(Carboxymethyl)D[Phe(3-CN)]Y(Carboxymethyl)[Bip]Y(Carboxymethyl)[NMeA][dL][Dab][Cha]VEC[Dab][AEEA][Aun]-OH; thioether N-14)
5 | 30.2 nM | CC(C)C[C@H]1NC(=O)[C@H](C)N(C)C(=O)[C@H](Cc2ccc(OCC(=O)O)cc2)NC(=O)[C@H](Cc2ccc(-c3ccccc3)cc2)NC(=O)[C@H](Cc2ccc(C(=O)O)cc2)NC(=O)[C@H](Cc2cccc(C(F)(F)F)c2)NC(=O)[C@H](CC(=O)O)NC(=O)[C@H](Cc2ccc(OCC(=O)O)cc2)NC(=O)[C@H]([C@@H](C)O)NC(=O)CSC[C@@H](C(=O)N[C@@H](CCN)C(=O)NCCCCCCCCCCC(=O)O)NC(=O)[C@H]([C@@H](C)O)NC(=O)[C@H](C(C)C)NC(=O)[C@H](CC2CCCCC2)NC(=O)[C@H](CCN)NC1=O [Example 1231] ({CH2CO}-TY(Carboxymethyl)D[Phe(3-CF3)][Phe(4-COOH)][Bip]Y(Carboxymethyl)[NMeA][dL][Dab][Cha]VTC[Dab][Aun]-OH; thioether N-14)
6 | 34.1 nM | CC(C)C[C@H]1NC(=O)[C@H](C)N(C)C(=O)[C@H](Cc2ccc(OCC(=O)O)cc2)NC(=O)[C@H](Cc2ccc(-c3ccccc3)cc2)NC(=O)[C@H](Cc2ccc(C(=O)O)cc2)NC(=O)[C@H](Cc2cccc(Cl)c2)NC(=O)[C@H](CC(=O)O)NC(=O)[C@H](Cc2ccc(OCC(=O)O)cc2)NC(=O)[C@H]([C@@H](C)O)NC(=O)CSC[C@@H](C(=O)N[C@@H](CCN)C(=O)NCCCCCCCCCCC(=O)O)NC(=O)[C@H]([C@@H](C)O)NC(=O)[C@H](C(C)C)NC(=O)[C@H](CC2CCCCC2)NC(=O)[C@H](CCN)NC1=O [Example 1232] ({CH2CO}-TY(Carboxymethyl)D[Phe(3-Cl)][Phe(4-COOH)][Bip]Y(Carboxymethyl)[NMeA][dL][Dab][Cha]VTC[Dab][Aun]-OH; thioether N-14)
7 | 66.7 nM | CC(C)C[C@H]1NC(=O)[C@H](C)N(C)C(=O)[C@H](Cc2ccc(OCC(=O)O)cc2)NC(=O)[C@H](Cc2ccc(-c3ccccc3)cc2)NC(=O)[C@H](Cc2ccc(C(=O)O)cc2)NC(=O)[C@H](Cc2cccc(C#N)c2)NC(=O)[C@H](CC(=O)O)NC(=O)[C@H](Cc2ccc(OCC(=O)O)cc2)NC(=O)[C@H]([C@@H](C)O)NC(=O)CSC[C@@H](C(=O)N[C@@H](CCN)C(=O)NCCCCCCCCCCC(=O)O)NC(=O)[C@H]([C@@H](C)O)NC(=O)[C@H](C(C)C)NC(=O)[C@H](CC2CCCCC2)NC(=O)[C@H](CCN)NC1=O [Example 1233] ({CH2CO}-TY(Carboxymethyl)D[Phe(3-CN)][Phe(4-COOH)][Bip]Y(Carboxymethyl)[NMeA][dL][Dab][Cha]VTC[Dab][Aun]-OH; thioether N-14)
8 | 31.6 nM | Cc1cccc(C[C@@H]2NC(=O)[C@H](CC(=O)O)NC(=O)[C@H](Cc3ccc(OCC(=O)O)cc3)NC(=O)[C@H]([C@@H](C)O)NC(=O)CSC[C@@H](C(=O)N[C@@H](CCN)C(=O)NCCCCCCCCCCC(=O)O)NC(=O)[C@H]([C@@H](C)O)NC(=O)[C@H](C(C)C)NC(=O)[C@H](CC3CCCCC3)NC(=O)[C@H](CCN)NC(=O)[C@@H](CC(C)C)NC(=O)[C@H](C)N(C)C(=O)[C@H](Cc3ccc(OCC(=O)O)cc3)NC(=O)[C@H](Cc3ccc(-c4cc(F)cc(F)c4)cc3)NC(=O)[C@H](Cc3ccc(C(=O)O)cc3)NC2=O)c1 [Example 1234] ({CH2CO}-TY(Carboxymethyl)D[Phe(3-Me)][Phe(4-COOH)][X13]Y(Carboxymethyl)[NMeA][dL][Dab][Cha]VTC[Dab][Aun]-OH; thioether N-14)
9 | 9.5 nM | Cc1cccc(C[C@@H]2NC(=O)[C@H](CC(=O)O)NC(=O)[C@H](Cc3ccc(OCC(=O)O)cc3)NC(=O)[C@H]([C@@H](C)O)NC(=O)CSC[C@@H](C(=O)N[C@@H](CCN)C(=O)NCCCCCCCCCCC(=O)O)NC(=O)[C@H]([C@@H](C)O)NC(=O)[C@H](C(C)C)NC(=O)[C@H](CC3CCCCC3)NC(=O)[C@H](CCN)NC(=O)[C@@H](CC(C)C)NC(=O)[C@H](C)N(C)C(=O)[C@H](Cc3ccc(OCC(=O)O)cc3)NC(=O)[C@H](Cc3ccc(-c4ccc(F)cc4)cc3)NC(=O)[C@H](Cc3ccc(C(=O)O)cc3)NC2=O)c1 [Example 1235] ({CH2CO}-TY(Carboxymethyl)D[Phe(3-Me)][Phe(4-COOH)][Phe(4-(4-F-Ph))]Y(Carboxymethyl)[NMeA][dL][Dab][Cha]VTC[Dab][Aun]-OH; thioether N-14)
10 | 54.5 nM | Cc1cccc(C[C@@H]2NC(=O)[C@H](CC(=O)O)NC(=O)[C@H](Cc3ccc(OCC(=O)O)cc3)NC(=O)[C@H]([C@@H](C)O)NC(=O)CSC[C@@H](C(=O)N[C@@H](CCN)C(=O)NCCCCCCCCCCC(=O)O)NC(=O)[C@H]([C@@H](C)O)NC(=O)[C@H](C(C)C)NC(=O)[C@H](CC3CCCCC3)NC(=O)[C@H](CCN)NC(=O)[C@@H](CC(C)C)NC(=O)[C@H](C)N(C)C(=O)[C@H](Cc3ccc(OCC(=O)O)cc3)NC(=O)[C@H](Cc3ccc(-c4cc(F)c(F)c(F)c4)cc3)NC(=O)[C@H](Cc3ccc(C(=O)O)cc3)NC2=O)c1 [Example 1236] ({CH2CO}-TY(Carboxymethyl)D[Phe(3-Me)][Phe(4-COOH)][X5]Y(Carboxymethyl)[NMeA][dL][Dab][Cha]VTC[Dab][Aun]-OH; thioether N-14)
11 | 180 nM | CC(C)C[C@H]1NC(=O)[C@H](C)N(C)C(=O)[C@H](Cc2ccc(OCC(=O)O)cc2)NC(=O)[C@H](Cc2ccc(-c3cc(F)c(F)c(F)c3)cc2)NC(=O)[C@H](Cc2ccc(C(=O)O)cc2)NC(=O)[C@H](Cc2cccc(C(F)(F)F)c2)NC(=O)[C@H](CC(=O)O)NC(=O)[C@H](Cc2ccc(OCC(=O)O)cc2)NC(=O)[C@H]([C@@H](C)O)NC(=O)CSC[C@@H](C(=O)N[C@@H](CCN)C(=O)NCCCCCCCCCCC(=O)O)NC(=O)[C@H]([C@@H](C)O)NC(=O)[C@H](C(C)C)NC(=O)[C@H](CC2CCCCC2)NC(=O)[C@H](CCN)NC1=O [Example 1237] ({CH2CO}-TY(Carboxymethyl)D[Phe(3-CF3)][Phe(4-COOH)][X5]Y(Carboxymethyl)[NMeA][dL][Dab][Cha]VTC[Dab][Aun]-OH; thioether N-14)
12 | 14.9 nM | C#CC[C@H](NC(=O)[C@H](CCN)NC(=O)[C@@H]1CSCC(=O)N[C@@H]([C@@H](C)O)C(=O)N[C@@H](Cc2ccc(OCC(=O)O)cc2)C(=O)N[C@@H](CC(=O)O)C(=O)N[C@@H](Cc2cccc(C(F)(F)F)c2)C(=O)N[C@@H](Cc2ccc(C(=O)O)cc2)C(=O)N[C@@H](Cc2ccc(-c3ccccc3)cc2)C(=O)N[C@@H](Cc2ccc(OCC(=O)O)cc2)C(=O)N(C)[C@@H](C)C(=O)N[C@H](CC(C)C)C(=O)N[C@@H](CCN)C(=O)N[C@@H](CC2CCCCC2)C(=O)N[C@@H](C(C)C)C(=O)N[C@@H]([C@@H](C)O)C(=O)N1)C(=O)NCCCCCCCCCCC(=O)O [Example 1238] ({CH2CO}-TY(Carboxymethyl)D[Phe(3-CF3)][Phe(4-COOH)][Bip]Y(Carboxymethyl)[NMeA][dL][Dab][Cha]VTC[Dab][Pra][Aun]-OH; thioether N-14)
